Biological target: T1, human TRPM5 ion channel (Homo sapiens, UniProt Q9NZQ8)
T1 sequence (Q9NZQ8 1-1165): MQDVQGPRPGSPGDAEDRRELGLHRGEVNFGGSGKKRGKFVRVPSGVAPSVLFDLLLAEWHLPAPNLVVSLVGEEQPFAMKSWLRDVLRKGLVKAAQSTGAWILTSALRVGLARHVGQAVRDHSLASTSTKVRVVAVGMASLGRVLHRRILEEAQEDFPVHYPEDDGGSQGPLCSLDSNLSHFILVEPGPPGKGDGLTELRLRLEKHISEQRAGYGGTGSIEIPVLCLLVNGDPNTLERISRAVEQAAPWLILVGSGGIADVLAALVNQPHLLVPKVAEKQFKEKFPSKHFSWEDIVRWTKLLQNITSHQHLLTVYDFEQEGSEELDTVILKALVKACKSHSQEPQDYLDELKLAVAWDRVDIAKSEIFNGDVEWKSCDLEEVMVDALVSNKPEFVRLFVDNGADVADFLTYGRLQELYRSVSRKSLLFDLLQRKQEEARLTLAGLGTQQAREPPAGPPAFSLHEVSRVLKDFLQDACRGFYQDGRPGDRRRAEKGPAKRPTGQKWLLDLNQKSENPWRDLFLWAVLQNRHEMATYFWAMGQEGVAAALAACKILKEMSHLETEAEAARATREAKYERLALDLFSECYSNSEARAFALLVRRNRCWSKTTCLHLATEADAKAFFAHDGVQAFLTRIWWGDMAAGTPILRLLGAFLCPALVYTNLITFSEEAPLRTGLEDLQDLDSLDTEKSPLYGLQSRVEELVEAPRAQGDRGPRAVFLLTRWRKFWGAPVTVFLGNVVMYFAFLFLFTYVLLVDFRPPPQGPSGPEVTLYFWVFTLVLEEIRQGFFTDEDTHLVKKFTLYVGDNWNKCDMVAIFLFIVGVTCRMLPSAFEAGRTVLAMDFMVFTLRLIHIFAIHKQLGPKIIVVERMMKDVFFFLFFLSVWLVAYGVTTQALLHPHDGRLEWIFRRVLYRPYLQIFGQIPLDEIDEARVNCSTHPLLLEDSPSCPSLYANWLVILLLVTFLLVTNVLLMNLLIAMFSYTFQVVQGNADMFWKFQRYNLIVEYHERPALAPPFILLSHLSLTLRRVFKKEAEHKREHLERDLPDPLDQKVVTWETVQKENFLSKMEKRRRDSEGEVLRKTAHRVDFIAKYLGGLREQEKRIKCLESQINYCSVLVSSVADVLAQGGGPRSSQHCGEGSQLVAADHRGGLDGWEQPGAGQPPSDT
Assay: FLIPR-based assay for membrane potential and calcium mobilization (TRPM5 inhibiting activity)
Format: cell-based
Settings: live cells, 30° C., read-out: hTrpM5 IC50
Procedure: The activity of compounds of the present invention on human TRPM5 ion channel was measured using the FLIPR-based (fluorescent imaging plate reader) assay for membrane potential and calcium mobilization described in U.S. Patent Application Publication No. 2008/0249189 A1 in live cells, wherein the assay is performed at 30° C. Determinations of affinity and efficacy were derived from measurements of TRPM5 activity over a range of compound concentrations. The concentration range was achieved by 10 serial dilutions (either 2-fold or 3-fold decrements) from a maximum concentration of no greater that 100 μM. Curver fitting was performed on the resulting data to yield concentration-effect functions, from which the half-maximal inhibitory concentration (IC50) was derived for all the tested compounds. The IC50 values were considered to be accurate reflections of affinity between the compounds and TRPM5.
Representative compounds of the present invention have been tested in the FLIPR assay for TRPM5 inhibiting activity, which is described in detail above.

| Structure (SMILES) | IC50 [µM] |
| --- | --- |
| COc1ccc(/C=N/NC(=O)CCn2cc(C)c3ccccc32)cc1OC [Example 56, N′-(3,4-dimethoxybenzylidene)-3-(3-methyl-1H-indol-1-yl)propanehydrazide] | 0.017 |
| O=C(N/N=C/c1cc(F)c2ncccc2c1)C1CC1c1ccccc1 (stereo not drawn) [Example 44, trans-N′-((8-Fluoroquinolin-6-yl)methylene)-2-phenylcyclopropanecarbohydrazide] | 0.55 |
| O=C(N/N=C/c1cc(Cl)c2ncccc2c1)[C@@H]1C[C@H]1c1ccccc1 (relative stereo) [Example 25, trans-N′-((8-Chloroquinolin-6-yl)methylene)-2-phenylcyclopropanecarbohydrazide] | 0.34 |
| Cc1cc(/C=N/NC(=O)CCn2cc(C)c3c(C)cccc32)cc2cccnc12 [Example 64, 3-(3,4-dimethyl-1H-indol-1-yl)-N′-((8-methylquinolin-6-yl)-methylene)propanehydrazide] | 0.005 |
| Cc1cn(CCC(=O)N/N=C/c2cc(C)c3ncccc3c2)c2ccccc12 [Example 3, 3-(3-Methyl-1H-indol-1-yl)-N′-((8-methylquinolin-6-yl)methylene)propanehydrazide] | 0.03 |
| COc1ccc(/C=N/NC(=O)C(C)Sc2cccc(Cl)c2)cc1OC (centres unmarked) [Example 1, 2-(3-Chlorophenylthio)-N′-(3,4-dimethoxybenzylidene)propanehydrazide] | 0.055 |
| Cc1cn(CCC(=O)N/N=C/c2ccc3nccnc3c2)c2ccccc12 [Example 32, 3-(3-Methyl-1H-indol-1-yl)-N′-(quinoxalin-6-ylmethylene)propanehydrazide] | 2.2 |
| COc1cc(/C=N/NC(=O)C2CC2c2cccc(Cl)c2)cc2cccnc12 (stereo not drawn) [Example 30, trans-2-(3-Chlorophenyl)-N′-((8-methoxyquinolin-6-yl)methylene)cyclopropanecarbohydrazide] | 0.045 |
| COc1cc(/C=N/NC(=O)CCn2cc(C)c3c(C)cccc32)ccc1OCc1cnccn1 [Example 21, 3-(3,4-Dimethyl-1H-indol-1-yl)-N′-(3-methoxy-4-(pyrazin-2-ylmethoxy)benzylidene)propanehydrazide] | 0.06 |
| COc1ccc(/C=N/NC(=O)NCCc2ccc(Cl)cc2)cc1OC [Example 5, N-(4-Chlorophenethyl)-2-(3,4-dimethoxybenzylidene)hydrazinecarboxamide] | 0.051 |
| Cc1cc(C=NNC(=O)C2CC2c2ccccc2)cc2cccnc12 (single isomer, unassigned) [11 (E1), trans-N′-((8-Methylquinolin-6-yl)methylene)-2-phenylcyclopropanecarbohydrazide, E1 enantiomer] | > 10 |
| COc1ccc(/C=N/NC(=O)CCc2cnc3ccccc3c2)cc1OC [Example 39, N′-(3,4-dimethoxybenzylidene)-3-(quinolin-3-yl)propanehydrazide] | 0.81 |
| COc1cc(/C=N/NC(=O)CCn2cc(C)c3ccccc32)ccc1OCCCO [Example 4, N′-(4-(3-Hydroxypropoxy)-3-methoxybenzylidene)-3-(3-methyl-1H-indol-1-yl)propanehydrazide] | 0.5 |
| Cc1cc(/C=N/NC(=O)CSc2cccc(Cl)c2)cc2cccnc12 [Example 35, 2-(3-Chlorophenylthio)-N′-((8-methylquinolin-6-yl)methylene)acetohydrazide] | 0.83 |
| COc1cc(/C=N/NC(=O)CCn2cc(C)c3c(C)cccc32)cc2cccnc12 [Example 27, 3-(3,4-Dimethyl-1H-indol-1-yl)-N′-((8-methoxyquinolin-6-yl)methylene)propanehydrazide] | 0.0014 |
| COc1ccc(/C=N/NC(=O)NCCc2ccccc2)cc1OC [Example 65, 2-(3,4-dimethoxybenzylidene)-N-phenethylhydrazinecarboxamide] | 0.2 |

| Structure (SMILES) | IC50 [µM] |
| --- | --- |
| COc1ccc(/C=N/NC(=O)CCn2ccc3ccccc32)cc1OC [Example 54, N′-(3,4-dimethoxybenzylidene)-3-(1H-indol-1-yl)propanehydrazide] | 0.17 |
| COc1ccc(/C=N/NC(=O)CCn2cc(Cl)c3c(C)cccc32)cc1OC [Example 49, 3-(3-Chloro-4-methyl-1H-indol-1-yl)-N′-(3,4-dimethoxybenzylidene)propanehydrazide] | 0.0013 |
| COc1ccc([C@@H]2C[C@H]2C(=O)N/N=C/c2cc(C)c3ncccc3c2)cn1 (relative stereo) [Example 41, trans-2-(6-Methoxypyridin-3-yl)-N′-((8-methylquinolin-6-yl)methylene)cyclopropanecarbohydrazide] | 5 |
| COc1ccc(/C=N/NC(=O)CCn2cc(C)c3c(C)cccc32)cc1OC [Example 7, N′-(3,4-Dimethoxybenzylidene)-3-(3,4-dimethyl-1H-indol-1-yl)propanehydrazide] | 0.0018 |
| COc1cc(/C=N/NC(=O)C2CC2c2ccccc2)ccc1OCc1cccnc1 (stereo not drawn) [Example 20, trans-N′-(3-Methoxy-4-(pyridin-3-ylmethoxy)benzylidene)-2-phenylcyclopropanecarbohydrazide] | 1.6 |
| Cc1cn(CCC(=O)N/N=C/c2ccc3ncccc3n2)c2ccccc12 [Example 33, N′-((1,5-Naphthyridin-2-yl)methylene)-3-(3-methyl-1H-indol-1-yl)propanehydrazide] | 1.3 |
| COc1cc(/C=N/NC(=O)CCn2cc(C)c3c(C)cccc32)ccc1OCc1ccncc1 [Example 18, 3-(3,4-Dimethyl-1H-indol-1-yl)-N′-(3-methoxy-4-(pyridin-4-ylmethoxy)benzylidene)propanehydrazide] | 0.046 |
| COc1ccc(/C=N/NC(=O)[C@@H]2C[C@H]2c2cccc(C(F)(F)F)c2)cc1OC (relative stereo) [Example 6, trans-N′-(3,4-Dimethoxybenzylidene)-2-(3-(trifluoromethyl)phenyl)cyclopropanecarbohydrazide] | 0.037 |
| COc1cnc(/C=N/NC(=O)C(C)Sc2cccc(Cl)c2)cc1OC (centres unmarked) [Example 53, 2-(3-Chlorophenylthio)-N′-((4,5-dimethoxypyridin-2-yl)methylene)propanehydrazide] | > 30 |
| Cc1cc(/C=N/NC(=O)C2CC2c2ccc(F)cc2)cc2cccnc12 (stereo not drawn) [Example 40, trans-2-(4-Fluorophenyl)-N′-((8-methylquinolin-6-yl)methylene)cyclopropanecarbohydrazide] | 0.51 |
| Cc1ccnc2ccc(/C=N/NC(=O)CCn3cc(C)c4ccccc43)cc12 [Example 62, 3-(3-methyl-1H-indol-1-yl)-N′-((4-methylquinolin-6-yl)methylene)-propanehydrazide] | 0.37 |
| COc1cc(/C=N/NC(=O)CCn2cc(C)c3c(C)cccc32)cc(Cl)c1OC [Example 15, N′-(3-Chloro-4,5-dimethoxybenzylidene)-3-(3,4-dimethyl-1H-indol-1-yl)propanehydrazide] | 0.038 |
| O=C(N/N=C/c1ccc2ncccc2n1)[C@@H]1C[C@H]1c1cccc(Cl)c1 (relative stereo) [Example 31, trans-N′-((1,5-Naphthyridin-2-yl)methylene)-2-(3-chlorophenyl)cyclopropanecarbohydrazide] | ~50 |
| COc1ccc(/C=N/NC(=O)CCn2cc(C)c3c(OC)cccc32)cc1OC [Example 46, N′-(3,4-Dimethoxybenzylidene)-3-(4-methoxy-3-methyl-1H-indol-1-yl)propanehydrazide] | 0.006 |
| COc1ccc(/C=N/NC(=O)CCn2cc(CN(C)C)c3c(Cl)cccc32)cc1OC [Example 47, 3-(4-Chloro-3-((dimethylamino)methyl)-1H-indol-1-yl)-N′-(3,4-dimethoxybenzylidene)propanehydrazide] | 1.5 |
| COc1ccc(/C=N/NC(=O)CCc2cn(C)c3ccccc23)cc1OC [Example 2, N′-(3,4-dimethoxybenzylidene)-3-(1-methyl-1H-indol-3-yl)propanehydrazide] | 0.051 |

Source: patent US20110033393A1, “Hydrazone Compounds and Their Use” (priority 2009, published 2011)
